Assay results reported in patent US12378231B2, “Small molecules as monoacylglycerol lipase (MAGL) inhibitors, compositions and use thereof” (APOGEE PHARMACEUTICALS, INC., priority 2023, dated 2025).

Columns and labels:
human recombinant MAGL = human recombinant MAGL (Homo sapiens (Human), UniProt Q99685); test: In vitro inhibition of human recombinant MAGL activity (Cayman inhibitor screening kit, 4-nitrophenylacetate hydrolysis); assay type: biochemical; conditions: human recombinant MAGL; read-out: Inhibition on MAGL activity (IC50)
Text: The inhibitory effect of the synthetic chemicals on activity of human recombinant MAGL was studied using commercial inhibitor screening kit (Cayman Chemical). […] The absorbance of the yellow product can be analyzed using the plate reader. […]

human recombinant FAAH = human recombinant FAAH (Homo sapiens (Human), UniProt O00519); test: In vitro inhibition of human recombinant FAAH activity (Cayman FAAH inhibitor screening kit, AMC arachidonoyl amide hydrolysis); assay type: biochemical
Text: In brief, FAAH hydrolyzes AMC arachidonoyl amide resulting in the release of the fluorescent product, while the inhibitor will inhibit the FAAH activity and thus reduce the fluorescent signal.

Chain of human recombinant MAGL (Q99685 whole entry): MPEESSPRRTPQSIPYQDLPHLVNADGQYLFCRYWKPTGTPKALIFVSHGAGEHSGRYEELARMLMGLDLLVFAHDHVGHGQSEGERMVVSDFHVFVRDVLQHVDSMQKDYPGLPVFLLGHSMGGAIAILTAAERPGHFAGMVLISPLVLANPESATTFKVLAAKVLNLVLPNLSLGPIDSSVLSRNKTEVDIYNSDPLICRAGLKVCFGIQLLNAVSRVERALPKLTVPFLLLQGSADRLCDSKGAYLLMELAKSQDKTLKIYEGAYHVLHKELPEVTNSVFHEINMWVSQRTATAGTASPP
Chain of human recombinant FAAH (O00519 whole entry): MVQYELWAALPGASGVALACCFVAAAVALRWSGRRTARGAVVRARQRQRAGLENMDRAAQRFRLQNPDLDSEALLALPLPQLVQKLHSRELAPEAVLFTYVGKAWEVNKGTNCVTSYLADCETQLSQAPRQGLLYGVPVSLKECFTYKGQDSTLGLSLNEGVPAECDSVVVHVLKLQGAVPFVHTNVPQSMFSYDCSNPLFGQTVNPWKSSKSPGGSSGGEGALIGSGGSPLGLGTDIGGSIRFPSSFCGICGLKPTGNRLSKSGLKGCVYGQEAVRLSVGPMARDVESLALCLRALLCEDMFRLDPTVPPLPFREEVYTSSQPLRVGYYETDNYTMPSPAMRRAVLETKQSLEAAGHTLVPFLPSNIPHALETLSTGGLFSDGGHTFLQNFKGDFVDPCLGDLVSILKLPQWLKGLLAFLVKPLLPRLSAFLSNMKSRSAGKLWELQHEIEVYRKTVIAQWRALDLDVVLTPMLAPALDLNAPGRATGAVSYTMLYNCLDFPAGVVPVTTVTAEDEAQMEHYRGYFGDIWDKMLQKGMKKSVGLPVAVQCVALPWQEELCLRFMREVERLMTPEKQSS

Row | SMILES | IC50 (human recombinant MAGL) | IC50 (human recombinant FAAH)
1 | N#Cc1ncn(C(=O)N2CCC3(CC2)CCN(C(c2ccc4c(c2)COCO4)c2ccc4c(c2)COCO4)CC3)n1 [Example 79, 1-(9-(bis(4H-benzo[d][1,3]dioxin-6-yl)methyl)-3,9-diazaspiro[5.5]undecane-3-carbonyl)-1H-1,2,4-triazole-3-carbonitrile] | 0.001 to 0.01 µM | ~50 µM
2 | N#Cc1ncn(C(=O)N2CC3(C2)CN(C(c2ccc4c(c2)COCO4)c2ccc4c(c2)COCO4)C3)n1 [Example 80, 1-(6-(bis(4H-benzo[d][1,3]dioxin-6-yl)methyl)-2,6-diazaspiro[3.3]heptane-2-carbonyl)-1H-1,2,4-triazole-3-carbonitrile] | 0.01 to 0.1 µM | 10 to 50 µM
3 | N#Cc1ncn(C(=O)N2CC3CN(C(c4ccc5c(c4)COCO5)c4ccc5c(c4)COCO5)CC3C2)n1 (stereo not drawn) [Example 81, meso-1-(5-(bis(4H-benzo[d][1,3]dioxin-6-yl)methyl)octahydropyrrolo[3,4-c]pyrrole-2-carbonyl)-1H-1,2,4-triazole-3-carbonitrile] | 0.001 to 0.01 µM | 1 to 10 µM
4 | N#Cc1ncn(C(=O)N2CC3(CCN(C(c4ccc5c(c4)COCO5)c4ccc5c(c4)COCO5)CC3)C2)n1 [Example 82, 1-(7-(bis(4H-benzo[d][1,3]dioxin-6-yl)methyl)-2,7-diazaspiro[3.5]nonane-2-carbonyl)-1H-1,2,4-triazole-3-carbonitrile] | 0.01 to 0.1 µM | > 50 µM
5 | N#Cc1ncn(C(=O)N2CCC3(CC2)CN(C(c2ccc4c(c2)COCO4)c2ccc4c(c2)COCO4)C3)n1 [Example 83, 1-(2-(bis(4H-benzo[d][1,3]dioxin-6-yl)methyl)-2,7-diazaspiro[3.5]nonane-7-carbonyl)-1H-1,2,4-triazole-3-carbonitrile] | 0.001 to 0.01 µM | 10 to 50 µM
6 | N#Cc1ncn(C(=O)N2CC3(CCN(C(c4ccc5c(c4)COCO5)c4ccc5c(c4)COCO5)C3)C2)n1 [Example 84, 1-(6-(bis(4H-benzo[d][1,3]dioxin-6-yl)methyl)-2,6-diazaspiro[3.4]octane-2-carbonyl)-1H-1,2,4-triazole-3-carbonitrile] | 0.001 to 0.01 µM | 1 to 10 µM
7 | N#Cc1ncn(C(=O)N2CCC3(CCN(C(c4ccc5c(c4)COCO5)c4ccc5c(c4)COCO5)C3)C2)n1 (stereo not drawn) [Example 85, 1-(7-(bis(4H-benzo[d][1,3]dioxin-6-yl)methyl)-2,7-diazaspiro[4.4]nonane-2-carbonyl)-1H-1,2,4-triazole-3-carbonitrile] | 0.01 to 0.1 µM | 1 to 10 µM
8 | COc1ccc(C(c2ccc(F)cc2)N2CCN(C(=O)n3nnc4cc(C#N)ccc43)CC2)cc1 (stereo not drawn) [Example 87, 1-(4-((4-fluorophenyl)(4-methoxyphenyl)methyl)piperazine-1-carbonyl)-1H-benzo[d][1,2,3]triazole-5-carbonitrile] | 0.001 to 0.01 µM | 0.1 to 10 µM
9 | COc1ccc(C(c2ccc(OC)cc2)N2CCN(C(=O)n3nnc4ccc(C#N)cc43)CC2)cc1 [Example 88, 1-(4-(bis(4-methoxyphenyl)methyl)piperazine-1-carbonyl)-1H-benzo[d][1,2,3]triazole-6-carbonitrile] | 0.001 to 0.01 µM | ~50 µM
10 | COc1ccc(C(c2ccc(OC)cc2)N2CCN(C(=O)n3nnc4cc(C#N)ccc43)CC2)cc1 [Example 89, 1-(4-(bis(4-methoxyphenyl)methyl)piperazine-1-carbonyl)-1H-benzo[d][1,2,3]triazole-5-carbonitrile] | 0.01 to 0.1 µM | 1 to 10 µM
11 | COc1ccc(C(c2ccc(OC)cc2)N2CCN(C(=O)n3cnc(C#N)n3)CC2)cc1 [Example 90, 1-(4-(bis(4-methoxyphenyl)methyl)piperazine-1-carbonyl)-1H-1,2,4-triazole-3-carbonitrile] | 0.001 to 0.01 µM | 1 to 10 µM
12 | N#Cc1ncn(C(=O)N2CCN(C(c3ccc4c(c3)OCCO4)c3ccc4c(c3)OCCO4)CC2)n1 [Example 92, 1-(4-(bis(2,3-dihydrobenzo[b][1,4]dioxin-6-yl)methyl)piperazine-1-carbonyl)-1H-1,2,4-triazole-3-carbonitrile] | 0.001 to 0.01 µM | ~10 µM
13 | COc1ccc(C(c2ccc(OC)c(OC)c2)N2CCN(C(=O)n3nnc4ccc(C#N)cc43)CC2)cc1OC [Example 93, 1-(4-(bis(3,4-dimethoxyphenyl)methyl)piperazine-1-carbonyl)-1H-benzo[d][1,2,3]triazole-6-carbonitrile] | 0.01 to 0.1 µM | > 50 µM
14 | COc1ccc(C(c2ccc(OC)c(OC)c2)N2CCN(C(=O)n3nnc4cc(C#N)ccc43)CC2)cc1OC [Example 94, 1-(4-(bis(3,4-dimethoxyphenyl)methyl)piperazine-1-carbonyl)-1H-benzo[d][1,2,3]triazole-5-carbonitrile] | 0.01 to 0.1 µM | > 50 µM
15 | COc1cccc(C(c2cccc(OC)c2)N2CCN(C(=O)n3nnc4ccc(C#N)cc43)CC2)c1 [Example 95, 1-(4-(bis(3-methoxyphenyl)methyl)piperazine-1-carbonyl)-1H-benzo[d][1,2,3]triazole-6-carbonitrile] | 0.001 to 0.01 µM | 10 to 50 µM
16 | COc1cccc(C(c2cccc(OC)c2)N2CCN(C(=O)n3nnc4cc(C#N)ccc43)CC2)c1 [Example 96, 1-(4-(bis(3-methoxyphenyl)methyl)piperazine-1-carbonyl)-1H-benzo[d][1,2,3]triazole-5-carbonitrile] | 0.001 to 0.01 µM | 1 to 10 µM
17 | COc1cccc(C(c2cccc(OC)c2)N2CCN(C(=O)n3cnc(C#N)n3)CC2)c1 [Example 97, 1-(4-(bis(3-methoxyphenyl)methyl)piperazine-1-carbonyl)-1H-1,2,4-triazole-3-carbonitrile] | 0.001 to 0.01 µM | 1 to 10 µM
18 | N#Cc1ccc2nnn(C(=O)N3CCN(C(c4ccc5c(c4)OC(F)(F)O5)c4ccc5c(c4)OC(F)(F)O5)CC3)c2c1 [Example 98, 1-(4-(bis(2,2-difluorobenzo[d][1,3]dioxol-5-yl)methyl)piperazine-1-carbonyl)-1H-benzo[d][1,2,3]triazole-6-carbonitrile] | 0.001 to 0.01 µM | > 50 µM
19 | N#Cc1ccc2c(c1)nnn2C(=O)N1CCN(C(c2ccc3c(c2)OC(F)(F)O3)c2ccc3c(c2)OC(F)(F)O3)CC1 [Example 99, 1-(4-(bis(2,2-difluorobenzo[d][1,3]dioxol-5-yl)methyl)piperazine-1-carbonyl)-1H-benzo[d][1,2,3]triazole-5-carbonitrile] | 0.001 to 0.01 µM | > 50 µM
20 | N#Cc1ccc(C(c2ccc(C#N)cc2)N2CCN(C(=O)n3nnc4ccc(C#N)cc43)CC2)cc1 [Example 100, 4,4′-((4-(6-cyano-1H-benzo[d][1,2,3]triazole-1-carbonyl)piperazin-1-yl)methylene)dibenzonitrile] | 0.001 to 0.01 µM | > 50 µM
21 | N#Cc1ccc(C(c2ccc(C#N)cc2)N2CCN(C(=O)n3nnc4cc(C#N)ccc43)CC2)cc1 [Example 101, 4,4′-((4-(5-cyano-1H-benzo[d][1,2,3]triazole-1-carbonyl)piperazin-1-yl)methylene)dibenzonitrile] | 0.001 to 0.01 µM | > 50 µM
22 | N#Cc1ccc(C(c2ccc(C#N)cc2)N2CCN(C(=O)n3cnc(C#N)n3)CC2)cc1 [Example 102, 4,4′-((4-(3-cyano-1H-1,2,4-triazole-1-carbonyl)piperazin-1-yl)methylene)dibenzonitrile] | 0.001 to 0.01 µM | 1 to 10 µM
23 | COc1ccc(C(c2cccnc2)N2CCN(C(=O)n3cnc(C#N)n3)CC2)cc1 (stereo not drawn) [Example 104, 1-(4-((4-methoxyphenyl)(pyridin-3-yl)methyl)piperazine-1-carbonyl)-1H-1,2,4-triazole-3-carbonitrile] | 0.001 to 0.01 µM | 1 to 10 µM
24 | N#Cc1ncn(C(=O)N2CCN(C(c3ccc4c(c3)CCO4)c3ccc4c(c3)CCO4)CC2)n1 [Example 107, 1-(4-(bis(2,3-dihydrobenzofuran-5-yl)methyl)piperazine-1-carbonyl)-1H-1,2,4-triazole-3-carbonitrile] | 0.001 to 0.01 µM | 1 to 10 µM
25 | O=C(N1CCN(C(c2ccc3c(c2)CCO3)c2ccc3c(c2)CCO3)CC1)n1nnc2ccccc21 [Example 108, (1H-benzo[d][1,2,3]triazol-1-yl)(4-(bis(2,3-dihydrobenzofuran-5-yl)methyl)piperazin-1-yl)methanone] | 0.001 to 0.01 µM | ~10 µM
26 | O=C(N1CCN(C(c2ccc3ncccc3c2)c2ccc3ncccc3c2)CC1)n1nnc2ccccc21 [Example 109, (1H-benzo[d][1,2,3]triazol-1-yl)(4-(di(quinolin-6-yl)methyl)piperazin-1-yl)methanone] | 0.01 to 0.1 µM | ~50 µM
27 | Cn1ncc2cc(C(c3ccc4c(cnn4C)c3)N3CCN(C(=O)n4cnc(C#N)n4)CC3)ccc21 [Example 111, 1-(4-(bis(1-methyl-1H-indazol-5-yl)methyl)piperazine-1-carbonyl)-1H-1,2,4-triazole-3-carbonitrile] | 0.001 to 0.01 µM | ~10 µM
28 | Cn1ncc2cc(C(c3ccc4c(cnn4C)c3)N3CCN(C(=O)n4nnc5ccccc54)CC3)ccc21 [Example 112, (1H-benzo[d][1,2,3]triazol-1-yl)(4-(bis(1-methyl-1H-indazol-5-yl)methyl)piperazin-1-yl)methanone] | 0.01 to 0.1 µM | ~50 µM
29 | COc1ccc(C(c2ccc(OC)nc2)N2CCN(C(=O)n3cnc(C#N)n3)CC2)cn1 [Example 114, 1-(4-(bis(6-methoxypyridin-3-yl)methyl)piperazine-1-carbonyl)-1H-1,2,4-triazole-3-carbonitrile] | 0.001 to 0.01 µM | ~10 µM
30 | N#Cc1ncn(C(=O)N2CCN(C(c3ccc(-n4cccn4)cc3)c3ccc(-n4cccn4)cc3)CC2)n1 [Example 116, 1-(4-(bis(4-(1H-pyrazol-1-yl)phenyl)methyl)piperazine-1-carbonyl)-1H-1,2,4-triazole-3-carbonitrile] | 0.001 to 0.01 µM | 10 to 50 µM
